Results: ChEMBL document CHEMBL5154833, “New N-aryl-N'-aryl-/(thio)ureido-/sulfamoylamino-derivatives of alkyl/alkylcarbamoyl piperazines: Effect of structural modifications on selectivity over 5-HT1A receptor” (Eur J Med Chem, 2022)

Tests used:
[1] = target: 5-hydroxytryptamine receptor 2A (Homo sapiens, UniProt P28223); experiment: Displacement of [3H]-ketanserin from 5-HT2AR (unknown origin) expressed in CHO-K1 cells by radioligand binding assay; format: cell-based
[2] = target: T1, 5-hydroxytryptamine receptor 6 (Homo sapiens, UniProt P50406); experiment: Displacement of [3H]-LSD from human full length 5HT6R expressed in HEK293 cells by radioligand binding assay; format: cell-based
[3] = target: 5-hydroxytryptamine receptor 7 (Homo sapiens, UniProt P34969); experiment: Displacement of [3H]-5-CT from human full length 5HT7BR expressed in HEK293 cells by radioligand binding assay; format: cell-based
D(2) dopamine receptor [4] = target: T2, D(2) dopamine receptor (Homo sapiens, UniProt P14416); experiment: Displacement of [3H]-raclopride from human full length D2L receptor expressed in HEK293 cells by radioligand binding assay; format: cell-based
[5] = target: T3, 5-hydroxytryptamine receptor 1A (Homo sapiens, UniProt P08908); experiment: Displacement of [3H]-[…] from human full length 5-HT1AR expressed in HEK293 cells by radioligand binding assay; format: cell-based
T3 sequence (P08908 whole entry): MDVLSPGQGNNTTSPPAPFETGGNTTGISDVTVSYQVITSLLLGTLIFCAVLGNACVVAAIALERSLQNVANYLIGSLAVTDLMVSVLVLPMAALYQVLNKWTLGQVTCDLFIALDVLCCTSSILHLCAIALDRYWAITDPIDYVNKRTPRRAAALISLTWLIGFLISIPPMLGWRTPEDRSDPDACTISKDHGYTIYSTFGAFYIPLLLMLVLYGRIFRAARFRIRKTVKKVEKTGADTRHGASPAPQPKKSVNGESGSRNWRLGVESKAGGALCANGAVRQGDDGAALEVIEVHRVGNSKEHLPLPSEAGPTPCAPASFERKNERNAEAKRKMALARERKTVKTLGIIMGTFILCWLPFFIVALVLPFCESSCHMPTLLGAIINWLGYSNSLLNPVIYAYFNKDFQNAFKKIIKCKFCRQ

[6] = target: T4, 5-hydroxytryptamine receptor 1A (Homo sapiens) (UniProt P08908); experiment: Binding affinity to human full length 5-HT1AR expressed in HEK293 cells by Cheng-Prusoff equation analysis; format: cell-based; conditions: filed as antagonist
T4 sequence (whole entry): T3 sequence (P08908 whole entry)

[7] = Permeability coefficient of the compound in PBS buffer at pH 7.4 incubated for 5 hrs by PAMPA-based LC-MS analysis; format: ADME; conditions: read-out: Kp
[8] = Hepatotoxicity in human HepG2 cells assessed as reduction in cell viability at 50 to 100 uM incubated for 72 hrs by MTS assay; format: toxicity, cell-based; conditions: hepg2, 72 h, dose 50-100 µM
[9] = Metabolic stability in mouse liver microsomes assessed as parent compound remaining at 50 uM measured after 120 mins by UPLC-MS analysis; format: ADME, Microsome; conditions: read-out: Stability
CYP3A4 = CYP3A4 (Homo sapiens, UniProt P08684); experiment: Inhibition of CYP3A4 (unknown origin) at 10 uM by luminescence based Glo assay; format: ADME; conditions: CYP3A4 enzyme (unknown origin)
Homo sapiens = species: Homo sapiens; experiment: Selectivity ratio of Ki for human full length D2L receptor expressed in HEK293 cells to Ki for human full length 5-HT1AR expressed in HEK293 cells; format: cell-based
[10] = Hepatotoxicity in human HepG2 cells at 1 to 10 uM incubated for 72 hrs by MTS assay; format: toxicity, cell-based; conditions: hepg2, 72 h, dose 1-10 µM
[11] = target: T3, 5-hydroxytryptamine receptor 1A; experiment: Displacement of [3H]-[…] from human 5-HT1AR in human brain tissue by radioligand binding assay; format: tissue-based
[12] = target: T1, 5-hydroxytryptamine receptor 6; experiment: Binding affinity to 5-HT6R (unknown origin) assessed as inhibition constant
[13] = target: T3, 5-hydroxytryptamine receptor 1A; experiment: Binding affinity to 5-HT1AR (unknown origin) assessed as inhibition constant
D(2) dopamine receptor [14] = target: T2, D(2) dopamine receptor; experiment: Binding affinity to D2L receptor (unknown origin) assessed as inhibition constant

T2 sequence (P14416 whole entry): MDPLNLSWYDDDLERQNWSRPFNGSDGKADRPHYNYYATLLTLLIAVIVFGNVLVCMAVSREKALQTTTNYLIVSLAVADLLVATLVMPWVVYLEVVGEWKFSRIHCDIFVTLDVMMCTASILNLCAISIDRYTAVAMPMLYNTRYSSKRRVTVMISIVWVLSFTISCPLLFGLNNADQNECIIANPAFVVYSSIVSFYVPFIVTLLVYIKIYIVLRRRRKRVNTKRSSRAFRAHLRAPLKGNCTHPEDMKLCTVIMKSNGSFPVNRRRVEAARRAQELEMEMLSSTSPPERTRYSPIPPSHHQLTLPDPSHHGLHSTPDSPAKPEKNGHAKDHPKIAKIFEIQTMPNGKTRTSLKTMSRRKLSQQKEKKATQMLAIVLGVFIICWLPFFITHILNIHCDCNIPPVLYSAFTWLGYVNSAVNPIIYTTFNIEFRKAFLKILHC
Sequence of 5-hydroxytryptamine receptor 7 (P34969 whole entry): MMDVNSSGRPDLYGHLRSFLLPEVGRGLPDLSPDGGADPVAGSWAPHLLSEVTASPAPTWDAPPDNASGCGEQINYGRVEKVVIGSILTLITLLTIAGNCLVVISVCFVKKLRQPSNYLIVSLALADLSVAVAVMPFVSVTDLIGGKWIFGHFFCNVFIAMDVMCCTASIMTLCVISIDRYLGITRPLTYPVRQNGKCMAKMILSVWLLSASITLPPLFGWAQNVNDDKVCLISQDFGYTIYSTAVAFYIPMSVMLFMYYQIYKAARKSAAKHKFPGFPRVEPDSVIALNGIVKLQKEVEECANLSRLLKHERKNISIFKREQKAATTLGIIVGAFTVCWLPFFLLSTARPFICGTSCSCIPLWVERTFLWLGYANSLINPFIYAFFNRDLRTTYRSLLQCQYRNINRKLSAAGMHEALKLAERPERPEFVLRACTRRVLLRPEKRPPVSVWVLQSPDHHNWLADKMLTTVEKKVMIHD
Sequence of 5-hydroxytryptamine receptor 2A (P28223 whole entry): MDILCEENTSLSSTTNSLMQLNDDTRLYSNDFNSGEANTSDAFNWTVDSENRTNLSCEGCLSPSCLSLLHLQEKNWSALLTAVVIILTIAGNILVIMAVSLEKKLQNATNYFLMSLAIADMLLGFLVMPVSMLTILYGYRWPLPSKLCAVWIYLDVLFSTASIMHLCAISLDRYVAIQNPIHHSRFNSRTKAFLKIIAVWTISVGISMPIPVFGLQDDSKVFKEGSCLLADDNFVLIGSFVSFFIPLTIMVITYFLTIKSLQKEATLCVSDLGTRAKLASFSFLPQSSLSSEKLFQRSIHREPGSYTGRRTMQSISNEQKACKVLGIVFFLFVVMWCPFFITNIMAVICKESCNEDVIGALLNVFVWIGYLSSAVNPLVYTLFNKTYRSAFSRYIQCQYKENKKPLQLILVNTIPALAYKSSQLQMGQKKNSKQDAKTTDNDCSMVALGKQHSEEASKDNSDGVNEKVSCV
T1 sequence (P50406 whole entry): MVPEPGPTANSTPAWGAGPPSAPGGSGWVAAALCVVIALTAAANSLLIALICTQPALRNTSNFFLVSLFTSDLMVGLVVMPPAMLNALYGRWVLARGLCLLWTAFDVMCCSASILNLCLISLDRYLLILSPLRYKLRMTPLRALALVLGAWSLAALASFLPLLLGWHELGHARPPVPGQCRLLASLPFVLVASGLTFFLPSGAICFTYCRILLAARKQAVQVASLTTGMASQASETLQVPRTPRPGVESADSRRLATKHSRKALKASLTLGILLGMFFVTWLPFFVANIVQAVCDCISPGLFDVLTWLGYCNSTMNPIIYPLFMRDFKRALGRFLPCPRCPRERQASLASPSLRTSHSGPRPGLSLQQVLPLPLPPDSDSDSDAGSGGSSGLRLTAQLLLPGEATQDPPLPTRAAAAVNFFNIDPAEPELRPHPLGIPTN
Sequence of CYP3A4 (P08684 whole entry): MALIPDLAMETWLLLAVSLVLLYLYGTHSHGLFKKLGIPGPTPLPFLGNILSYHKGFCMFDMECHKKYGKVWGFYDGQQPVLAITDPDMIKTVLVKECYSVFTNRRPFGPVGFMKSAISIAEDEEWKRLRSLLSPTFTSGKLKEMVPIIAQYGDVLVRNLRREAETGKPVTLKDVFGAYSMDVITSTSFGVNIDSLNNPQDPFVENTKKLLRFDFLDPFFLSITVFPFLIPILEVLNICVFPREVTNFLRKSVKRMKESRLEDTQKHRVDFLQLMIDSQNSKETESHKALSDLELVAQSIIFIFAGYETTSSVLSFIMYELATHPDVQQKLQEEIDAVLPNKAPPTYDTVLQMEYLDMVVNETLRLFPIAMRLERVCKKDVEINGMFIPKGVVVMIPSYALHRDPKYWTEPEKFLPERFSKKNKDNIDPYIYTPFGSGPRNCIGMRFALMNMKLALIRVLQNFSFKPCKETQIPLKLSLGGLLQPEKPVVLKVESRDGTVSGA

| SMILES | Ki [1] [nM] | Ki [2] [nM] | Ki [3] [nM] | Ki (D(2) dopamine receptor [4]) [nM] | Ki [5] [nM] | other results |
| --- | --- | --- | --- | --- | --- | --- |
| O=c1n(CCCCCCN2CCN(c3cccc4cccnc34)CC2)nc2ccccn12 | 2200 | 4140 | 655 | 143 | 3 | Kb [6]: 3.6 nM |
| NS(=O)(=O)NCCCCCCN1CCN(c2cccc(Cl)c2)CC1 | 329 | 1530 | 167 | 229 | 21 | – |
| O=S1(=O)N(CCCCCCN2CCN(c3cccc(Cl)c3)CC2)c2cccc3c2N1CCC3 | 282 | 1690 | 162 | 253 | 70 | – |
| O=C(NCCCCCCn1nc2ccccn2c1=O)N1CCN(c2cccc(Cl)c2)CC1 | 530 | 2550 | 462 | 1940 | 35 | Papp at 5 h [7]: 2.9 ×10⁻⁶ cm/s; Activity [8]: Toxic; remaining at 2 h, 50 µM [9]: 0%; inhibition at 10 µM (CYP3A4): 75%; Ratio Ki (Homo sapiens): 55; Activity [10]: Non-Toxic |
| O=c1n(CCCCCCN2CCN(c3cccc(Cl)c3Cl)CC2)nc2ccccn12 | 47 | 299 | 243 | 9 | 7 | – |
| O=c1n(CC2CCC(CN3CCN(c4cccc(Cl)c4)CC3)CC2)nc2ccccn12 (stereo not given) | 493 | 4580 | 257 | 559 | 31 | Ratio Ki (Homo sapiens): 18 |
| NC(=O)N1CCN(c2cccc(Cl)c2)CC1 | 32400 | 7490 | 22800 | 116000 | 7010 | – |
| O=c1n(CCCCCCN2CCN(c3cccc4ccccc34)CC2)nc2ccccn12 | 223 | 285 | 186 | 32 | 6 | – |
| O=c1n(Cc2ccc(CN3CCN(c4ccc(Cl)cc4)CC3)cc2)nc2ccccn12 | 1450 | 2140 | 201000 | 1390 | 467 | – |
| O=c1[nH]c2ccccc2n1CCN1CCN(c2cccc(C(F)(F)F)c2)CC1 [FLIBANSERIN] | – | – | – | – | – | Ki [11]: 11.8 nM |
| O=c1n(CCCCCCN2CCN(c3cccc(C(F)(F)F)c3)CC2)nc2ccccn12 | 291 | 404 | 1070 | 62 | 17 | – |
| NC(=O)NCCCCCCN1CCN(c2cccc(Cl)c2)CC1 | 195 | 4930 | 183 | 235 | 39 | – |
| S=c1n(CCCCCCN2CCN(c3cccc(Cl)c3)CC2)c2cccc3c2n1CCC3 | 258 | 582 | 171 | 85 | 206 | – |
| Cn1c(=O)c2c(ncn2C)n(C)c1=O [CAFFEINE] | – | – | – | – | – | Papp at 5 h [7]: 12.2 ×10⁻⁶ cm/s |
| O=c1n(CCCCCCN2CCN(c3cccc4c3OCCO4)CC2)nc2ccccn12 | 434 | 2840 | 271 | 60 | 1 | Ratio Ki (Homo sapiens): 60; Kb [6]: 2 nM |
| O=c1n(CCCCCCN2CCN(c3cccc(Cl)c3)CC2)c2cccc3c2n1CCC3 | 66 | 1140 | 61 | 18 | 74 | – |
| O=c1n(Cc2ccc(CN3CCN(c4cccc(Cl)c4)CC3)cc2)nc2ccccn12 | 1070 | 1160 | 3470 | 148 | 52 | – |
| Clc1cccc(N2CCNCC2)c1 [CHLOROPHENYLPIPERAZINE] | – | – | – | – | – | Ki [12]: 1750 nM; Ki [13]: 42 nM; Ki (D(2) dopamine receptor [14]): > 10000 nM |
